Source: ChEMBL document CHEMBL1201862, “PubChem BioAssay data set” (2004)
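48-hour exposure; five concentrations; linearly interpolated endpoints. GI50 = concentration required for 50% inhibition of growth.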 Active and inactive are the calls of the source. No stated cut-off is given here; in the data, active = GI50 up to about 1.1 µM and inactive = higher.

Legend:
Assay in all cases: inhibition of tumour cell growth, NCI panel, 48 h
[1] = test system: HT-29
[2] = test system: HL-60
[3] = test system: RXF 393
[4] = test system: M14
[5] = test system: SNB-19
[6] = test system: OVCAR-8
[7] = test system: MOLT-4
[8] = test system: SN12C
[9] = test system: UACC-62
[10] = test system: SF-539
[11] = test system: U-251
[12] = test system: EKVX
[13] = test system: K562
[14] = test system: LXFL 529
[15] = test system: SK-MEL-28
[16] = test system: TK-10
[17] = test system: A549
[18] = test system: LOX IMVI
[19] = test system: HCT-116
[20] = test system: ACHN
[21] = test system: UACC-257
[22] = test system: UO-31
[23] = test system: NCI-H226
[24] = test system: RPMI-8226
[25] = test system: KM12
[26] = test system: CCRF-CEM
[27] = test system: COLO 205
[28] = test system: SW-620
[29] = test system: SNB-78
[30] = test system: NCI-H23
[31] = test system: DLD-1
[32] = test system: SNB-75
[33] = test system: SK-MEL-5
[34] = test system: SF-295
[35] = test system: SK-MEL-2
[36] = test system: HCC 2998
[37] = test system: HOP-62
[38] = test system: IGROV-1
[39] = test system: Malme-3M
[40] = test system: KM-20L2
[41] = test system: A498
[42] = test system: SK-OV-3
[43] = test system: NCI-H460
[44] = test system: HCT-15
[45] = test system: OVCAR-3
[46] = test system: HOP-92
[47] = test system: 786-0
[48] = test system: CAKI-1
[49] = test system: OVCAR-5
[50] = test system: DMS-114
[51] = test system: DMS-273
[52] = test system: M19-MEL
[53] = test system: SR
[54] = test system: NCI-H522
[55] = test system: SF-268
[56] = test system: OVCAR-4
[57] = test system: NCI/ADR-RES
[58] = test system: DU-145
[59] = test system: PC-3
[60] = test system: MCF7
[61] = test system: MDA-MB-435
[62] = test system: T47D
[63] = test system: BT-549
[64] = test system: MDA-MB-231
[65] = test system: Hs-578T
[66] = test system: MDA-N

## COC(=O)CC(CC(=O)C(=O)OC)C(=O)OC (configuration not stated)
[1]
  GI50: > 100 µM (inactive)
[2]
  GI50: > 100 µM (inactive)
[3]
  GI50: > 100 µM (inactive)
[4]
  GI50: > 100 µM (inactive)
[5]
  GI50: > 100 µM (inactive)
[6]
  GI50: > 100 µM (inactive)
[7]
  GI50: > 100 µM (inactive)
[8]
  GI50: > 100 µM (inactive)
[9]
  GI50: > 100 µM (inactive)
[10]
  GI50: > 100 µM (inactive)
[11]
  GI50: > 100 µM (inactive)
[12]
  GI50: > 100 µM (inactive)
[13]
  GI50: > 100 µM (inactive)
[14]
  GI50: > 100 µM (inactive)
[15]
  GI50: > 100 µM (inactive)
[16]
  GI50: > 100 µM (inactive)
[17]
  GI50: > 100 µM (inactive)
[18]
  GI50: > 100 µM (inactive)
[19]
  GI50: > 100 µM (inactive)
[20]
  GI50: > 100 µM (inactive)
[21]
  GI50: > 100 µM (inactive)
[22]
  GI50: > 100 µM (inactive)
[23]
  GI50: > 100 µM (inactive)
[24]
  GI50: > 100 µM (inactive)
[25]
  GI50: > 100 µM (inactive)
[26]
  GI50: > 100 µM (inactive)
[27]
  GI50: > 100 µM (inactive)
[28]
  GI50: > 100 µM (inactive)
[29]
  GI50: > 100 µM (inactive)
[30]
  GI50: > 100 µM (inactive)
[31]
  GI50: > 100 µM (inactive)
[32]
  GI50: > 100 µM (inactive)
[33]
  GI50: > 100 µM (inactive)
[34]
  GI50: > 100 µM (inactive)
[35]
  GI50: > 100 µM (inactive)
[36]
  GI50: > 100 µM (inactive)
[37]
  GI50: > 100 µM (inactive)
[38]
  GI50: > 100 µM (inactive)
[39]
  GI50: > 100 µM (inactive)
[40]
  GI50: > 100 µM (inactive)
[41]
  GI50: > 100 µM (inactive)
[42]
  GI50: > 100 µM (inactive)
[43]
  GI50: > 100 µM (inactive)
[44]
  GI50: > 100 µM
[45]
  GI50: > 100 µM (inactive)
[46]
  GI50: > 100 µM (inactive)
[47]
  GI50: > 100 µM (inactive)
[48]
  GI50: > 100 µM (inactive)
[49]
  GI50: > 100 µM (inactive)

## c1ccc(-c2sc(-c3ccccc3)c3c2C(c2ccccc2)c2c(-c4ccccc4)sc(-c4ccccc4)c2C3c2ccccc2)cc1 (configuration not stated)
[1]
  GI50: > 100 µM (inactive)
[2]
  GI50: > 100 µM (inactive)
[3]
  GI50: > 100 µM (inactive)
[4]
  GI50: > 100 µM (inactive)
[5]
  GI50: > 100 µM (inactive)
[6]
  GI50: > 100 µM (inactive)
[8]
  GI50: > 100 µM (inactive)
[9]
  GI50: > 100 µM (inactive)
[10]
  GI50: > 100 µM (inactive)
[11]
  GI50: > 100 µM (inactive)
[12]
  GI50: > 100 µM (inactive)
[13]
  GI50: > 100 µM (inactive)
[14]
  GI50: > 100 µM (inactive)
[15]
  GI50: > 100 µM (inactive)
[16]
  GI50: > 100 µM (inactive)
[17]
  GI50: > 100 µM (inactive)
[18]
  GI50: > 100 µM (inactive)
[19]
  GI50: > 100 µM (inactive)
[20]
  GI50: > 100 µM (inactive)
[21]
  GI50: > 100 µM (inactive)
[50]
  GI50: > 100 µM (inactive)
[22]
  GI50: > 100 µM (inactive)
[23]
  GI50: > 100 µM (inactive)
[24]
  GI50: > 100 µM (inactive)
[25]
  GI50: > 100 µM (inactive)
[26]
  GI50: > 100 µM (inactive)
[27]
  GI50: > 100 µM (inactive)
[51]
  GI50: > 100 µM (inactive)
[28]
  GI50: > 100 µM (inactive)
[29]
  GI50: > 100 µM (inactive)
[30]
  GI50: > 100 µM (inactive)
[31]
  GI50: > 100 µM (inactive)
[32]
  GI50: > 100 µM (inactive)
[33]
  GI50: > 100 µM (inactive)
[34]
  GI50: > 100 µM (inactive)
[52]
  GI50: > 100 µM (inactive)
[36]
  GI50: > 100 µM (inactive)
[37]
  GI50: > 100 µM (inactive)
[38]
  GI50: > 100 µM (inactive)
[39]
  GI50: > 100 µM (inactive)
[53]
  GI50: > 100 µM (inactive)
[54]
  GI50: > 100 µM (inactive)
[40]
  GI50: > 100 µM (inactive)
[41]
  GI50: > 100 µM (inactive)
[42]
  GI50: > 100 µM (inactive)
[55]
  GI50: > 100 µM (inactive)
[43]
  GI50: > 100 µM (inactive)
[44]
  GI50: > 100 µM
[45]
  GI50: > 100 µM (inactive)
[46]
  GI50: > 100 µM (inactive)
[47]
  GI50: > 100 µM (inactive)
[56]
  GI50: > 100 µM (inactive)
[48]
  GI50: > 100 µM (inactive)
[49]
  GI50: > 100 µM (inactive)

## N=C(N)N/N=C/c1c(Cl)nc2sccn12
[1]
  GI50: 17.3 µM (inactive)
[2]
  GI50: 17.4 µM (inactive)
[3]
  GI50: 28.2 µM (inactive)
[4]
  GI50: 15.5 µM (inactive)
[5]
  GI50: 35.8 µM (inactive)
[57]
  GI50: 55.2 µM (inactive)
[6]
  GI50: 50.4 µM (inactive)
[7]
  GI50: 16.4 µM (inactive)
[8]
  GI50: 38.5 µM (inactive)
[9]
  GI50: 31.8 µM (inactive)
[10]
  GI50: 19.8 µM (inactive)
[58]
  GI50: 44.4 µM (inactive)
[11]
  GI50: 29.9 µM (inactive)
[12]
  GI50: 42.9 µM (inactive)
[59]
  GI50: 30.4 µM (inactive)
[13]
  GI50: 25.6 µM (inactive)
[60]
  GI50: 26.9 µM (inactive)
[61]
  GI50: 36.1 µM (inactive)
[15]
  GI50: 35.4 µM (inactive)
[16]
  GI50: 52.2 µM (inactive)
[17]
  GI50: 30.5 µM (inactive)
[18]
  GI50: 18.9 µM (inactive)
[19]
  GI50: 15.3 µM (inactive)
[20]
  GI50: 16.8 µM (inactive)
[21]
  GI50: 23.4 µM (inactive)
[22]
  GI50: 34.7 µM (inactive)
[23]
  GI50: 25.4 µM (inactive)
[24]
  GI50: 19.4 µM (inactive)
[25]
  GI50: 16.4 µM (inactive)
[26]
  GI50: 21.1 µM (inactive)
[27]
  GI50: 14.9 µM (inactive)
[62]
  GI50: 26.5 µM (inactive)
[63]
  GI50: 26.9 µM (inactive)
[28]
  GI50: 18 µM (inactive)
[30]
  GI50: 46.6 µM (inactive)
[32]
  GI50: 38.1 µM (inactive)
[33]
  GI50: 15.8 µM (inactive)
[34]
  GI50: 21.4 µM (inactive)
[35]
  GI50: > 10 µM (inactive)
[36]
  GI50: 16.9 µM (inactive)
[64]
  GI50: 33.6 µM (inactive)
[37]
  GI50: 21.5 µM (inactive)
[38]
  GI50: 53.5 µM (inactive)
[39]
  GI50: 23.3 µM (inactive)
[53]
  GI50: 22.9 µM (inactive)
[54]
  GI50: 27 µM (inactive)
[41]
  GI50: 28.2 µM (inactive)
[42]
  GI50: 60.1 µM (inactive)
[55]
  GI50: 24.2 µM (inactive)
[43]
  GI50: 16.7 µM (inactive)
[44]
  GI50: > 10 µM
[45]
  GI50: 24.1 µM (inactive)
[46]
  GI50: 21.1 µM (inactive)
[47]
  GI50: 17.1 µM (inactive)
[56]
  GI50: 19.2 µM (inactive)
[48]
  GI50: 52.6 µM (inactive)
[49]
  GI50: 28.8 µM (inactive)
[65]
  GI50: 18.2 µM (inactive)
[66]
  GI50: 30.1 µM (inactive)
